{"source": "patent US20260137692A1", "about": "“METHODS AND COMPOSITIONS FOR TREATING AND MANAGING ALZHEIMER'S DISEASE” (PHARMATROPHIX, INC., priority 2024, published 2026)", "test_system": "patients with mild to moderate Alzheimer's Disease", "assay": "Phase IIa trial: ADAS-Cog", "type": "in vivo, human", "settings": "ITT", "protocol": "Exploratory outcome evaluations involved the assessment of cognitive and clinical function (Table 4). […] Items from the Neurological Testing Battery (NTB), together with the ADAS-Cog 13, Spatial Navigation Test (AMUNET) were performed at Baseline, Week 12 and Week 26 (Visits 2, 4 and 5). While the MMSE was used primarily as a screening and baseline disease staging tool, its repeated administration at Week 26 provided an additional exploratory cognitive outcome measure. The Geriatric Depression Scale (GDS) was assessed at each Visit (Screening, Baseline, Week 4, 12, 26: Visits 1-5) and the Clinical Global Impression test (CGI) with Severity was assessed at Screening (Visit 1) and then the Improvement was subsequently assessed at Weeks 12 and 26 (Visits 4 and 5). For each test, whether categorical or numeric, all raw scores were considered interval in nature. The change from Screening (Week −8) or Baseline (Week 0) was therefore be derived for each patient. Actual values at each Visit and Changes from Screening/Baseline were summarized.\nAlzheimer's Disease Assessment Scale-13 items (total score=85) is used as a parameter for exploratory outcome analysis. ADAS-cog is a psychometric instrument designed to evaluate the severity of cognitive and non-cognitive behavioral dysfunctions characteristic of people with AD. The cognitive portion assesses memory, language and praxis functions. Most items are rated on a scale of 0 to 5, where 0 indicates no impairment and 1 to 5 indicates very mild (1), mild (2), moderate (3), moderately severe (4) or severe impairment (5) respectively. Other items are rated on the presence or absence of a characteristic number of errors or severity of errors. The total scores from the ADAS-cog sub-scales range from 0 (no impairment) to 85 (errors in all sub-tests).\nA positive (i.e., increasing) change of the score indicates cognitive worsening.\nADAS-Cog was assessed at Visits 2, 4 and 5, as well as at the early discontinuation Visit, if applicable."}
{"smiles": "CC[C@H](C)[C@H](N)C(=O)NCCN1CCOCC1", "note": "[LM11A-31-BHS, Tris[(2S,3S)-2-amino-3-methyl-N-(2-morpholinoethyl)pentanamide]tetra(monohydrogensulfate), monosulfate]", "values": [{"measurement": "progression compared to placebo in the LS mean ADAS-cog-13 score, increased by", "setting": "200 mg group, 26-week treatment period, not statistically significant", "result": 7.1, "unit": "%"}, {"measurement": "ADAS-cog-6 score progression compared to placebo, increased by", "setting": "200 mg group, 26 weeks", "result": 7.1, "unit": "%"}, {"measurement": "progression compared to placebo of the LS mean ADAS-cog-11 score, decreased by", "setting": "200 mg group, 26 weeks", "result": 9.8, "unit": "%"}, {"measurement": "progression compared to placebo in the LS mean ADAS-cog-13 score, decreased by", "setting": "400 mg group, 26-week treatment period, not statistically significant", "result": 35.3, "unit": "%"}, {"measurement": "ADAS-cog-6 score progression compared to placebo, decreased by", "setting": "400 mg group, 26 weeks", "result": 31.4, "unit": "%"}, {"measurement": "progression compared to placebo of the LS mean ADAS-cog-11 score, decreased by", "setting": "400 mg group, 26 weeks", "result": 42.7, "unit": "%"}]}
